This assay deals with T1, human IL-17A (Homo sapiens, UniProt Q16552).
T1 construct: purchased R&D Systems 7955-IL/CF
T1 sequence (Q16552 24-155): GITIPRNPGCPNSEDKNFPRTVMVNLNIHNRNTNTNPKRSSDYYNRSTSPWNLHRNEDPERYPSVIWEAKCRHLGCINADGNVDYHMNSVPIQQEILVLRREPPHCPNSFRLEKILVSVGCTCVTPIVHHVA
Put plainly: IL-17A AlphaLISA competition assay (block of IL-17A binding to its receptor IL-17RA). The note with it: mean IC50 (n≥2), block of IL-17A binding to IL-17RA. Put shortly: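 Human recombinant IL-17A (7.5 nM stock) pre-incubated 30 min at RT with compound, then IL-17RA/Fc (5 nM stock) added for 90 min; AlphaLISA read with anti-Fc acceptor beads, biotinylated anti-IL-17A antibody (5 nM) and streptavidin donor beads (3 h, dark). IC50 from 4-parameter logistic fit, normalised to DMSO and 4 μM reference inhibitor; n≥2.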
(Bead proximity is the source of the signal in Alpha formats.)

SMILES strings stand for the structures.

The term IC50 denotes the concentration that inhibits the measured activity by half. Low readings indicate higher potency, high ones lower potency. Turning to `COC[C@H](c1ccnc(NC(=O)[C@@H](NC(=O)c2nocc2C)C2CCC(F)(F)CC2)c1)N1C[C@@H](C(F)(F)F)NC1=O` [Example 196, N-((S)-1-(4,4-difluorocyclohexyl)-2-((4-((S)-2-methoxy-1-((S)-2-oxo-4-(trifluoromethyl)imidazolidin-1-yl)ethyl)pyridin-2-yl)amino)-2-oxoethyl)-4-methylisoxazole-3-carboxamide], the IC50 was 39 nM.

As to `COC[C@H](c1ccnc(NC(=O)[C@@H](NC(=O)c2conc2C(C)C)C2CCC(F)(F)CC2)c1)N1C[C@@H](C(F)(F)F)NC1=O` [Example 197, N-((S)-1-(4,4-difluorocyclohexyl)-2-((4-((S)-2-methoxy-1-((S)-2-oxo-4-(trifluoromethyl)imidazolidin-1-yl)ethyl)pyridin-2-yl)amino)-2-oxoethyl)-3-isopropylisoxazole-4-carboxamide], the IC50 was determined as 56 nM. This IC50 and that of the molecule before are within 1.5-fold of each other.

Turning to `CCc1nocc1C(=O)N[C@H](C(=O)Nc1cc([C@@H](COC)N2C[C@@H](C(F)(F)F)NC2=O)ccn1)C1CCC(F)(F)CC1` [Example 198, N-((S)-1-(4,4-difluorocyclohexyl)-2-((4-((S)-2-methoxy-1-((S)-2-oxo-4-(trifluoromethyl)imidazolidin-1-yl)ethyl)pyridin-2-yl)amino)-2-oxoethyl)-3-ethylisoxazole-4-carboxamide], the IC50 was 47 nM.

For `COC[C@H](c1ccnc(NC(=O)[C@@H](NC(=O)c2nonc2C)C2CCC(F)(F)CC2)c1)N1C[C@@H](C(F)(F)F)NC1=O` [Example 199, N-((S)-1-(4,4-difluorocyclohexyl)-2-((4-((S)-2-methoxy-1-((S)-2-oxo-4-(trifluoromethyl)imidazolidin-1-yl)ethyl)pyridin-2-yl)amino)-2-oxoethyl)-4-methyl-1,2,5-oxadiazole-3-carboxamide], the IC50 turned out to be 33 nM.

`COC[C@H](c1ccnc(NC(=O)[C@@H](NC(=O)c2nonc2C2CC2)C2CCC(F)(F)CC2)c1)N1C[C@@H](C(F)(F)F)NC1=O` [Example 200, 4-cyclopropyl-N-((S)-1-(4,4-difluorocyclohexyl)-2-((4-((S)-2-methoxy-1-((S)-2-oxo-4-(trifluoromethyl)imidazolidin-1-yl)ethyl)pyridin-2-yl)amino)-2-oxoethyl)-1,2,5-oxadiazole-3-carboxamide] gave an IC50 of 18 nM. This IC50 lies about 1.8-fold lower than the previous one.

In turn, `CCn1nccc1C(=O)N[C@H](C(=O)Nc1cc([C@@H](COC)N2C[C@@H](C(F)(F)F)NC2=O)ccn1)C1CCC(F)(F)CC1` [Example 201, N-((S)-1-(4,4-difluorocyclohexyl)-2-((4-((S)-2-methoxy-1-((S)-2-oxo-4-(trifluoromethyl)imidazolidin-1-yl)ethyl)pyridin-2-yl)amino)-2-oxoethyl)-1-ethyl-1H-pyrazole-5-carboxamide] showed an IC50 of 70 nM.

`COC[C@H](c1ccnc(NC(=O)[C@@H](NC(=O)c2ccnn2C)C2CCC(F)(F)CC2)c1)N1C[C@@H](C(F)(F)F)NC1=O` [Example 202, N-((S)-1-(4,4-difluorocyclohexyl)-2-((4-((S)-2-methoxy-1-((S)-2-oxo-4-(trifluoromethyl)imidazolidin-1-yl)ethyl)pyridin-2-yl)amino)-2-oxoethyl)-1-methyl-1H-pyrazole-5-carboxamide] displayed an IC50 of 70 nM.

In turn, `COC[C@H](c1ccnc(NC(=O)[C@@H](NC(=O)c2ccnn2C(C)C)C2CCC(F)(F)CC2)c1)N1C[C@@H](C(F)(F)F)NC1=O` [Example 203, N-((S)-1-(4,4-difluorocyclohexyl)-2-((4-((S)-2-methoxy-1-((S)-2-oxo-4-(trifluoromethyl)imidazolidin-1-yl)ethyl)pyridin-2-yl)amino)-2-oxoethyl)-1-isopropyl-1H-pyrazole-5-carboxamide] gave an IC50 of 90 nM. The IC50 values of the last two molecules are within 1.5-fold of each other.

The record behind these values is patent US20260200928A1, “THERAPEUTIC COMPOUNDS” (Sanofi, priority 2022, published 2026).
